Legend:
Test in all cases: area under concentration-response curve (viability) (AUC (a.u.)); higher = less active
Conditions in all cases: 48 h
[1] = system: CU-ACC1
Outline: (§1)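 Three adrenocortical carcinoma cell lines were exposed for 48 h to library compounds at 11 concentrations in 1,536-well plates, then read by CellTiter-Glo luminescence. Signals were scaled per plate against vehicle and empty-well controls. From fitted concentration-response curves of inhibitory or non-responding classes alone, AC50 and area under the curve were obtained.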

[2] = system: NCI-H295R
Outline: as §1

[3] = system: CU-ACC2
Outline: as §1

| Compound | area under concentration-response curve [1] | area under concentration-response curve [2] | area under concentration-response curve [3] |
| --- | --- | --- | --- |
| COC1=CC=C(C=C1)C/2=C(OC3O[C@@H](C)[C@H](O)[C@@H](O)[C@H]3O)/C(=O)C4=C(O2)C(=C(OC5O[C@H](CO)[C@@H](O)[C@H](O)[C@H]5O)C=C4O)CC=C(C)C (some centres not stated) | 510 | 564 | 624 |
| COC1=C2OC(=O)\C=C/C2=CC3=C1OC=C3 | 420 | 475 | 482 |
| C=C(c1ccc(C(=O)O)cc1)c1cc2c(cc1C)C(C)(C)CCC2(C)C | 509 | 511 | 500 |
| COc1ccccc1[C@H](c1cccc2ccccc12)[C@@](C)(C#N)C(=O)N1CCC(c2cccc(C(F)(F)F)c2)CC1 | 566 | 587 | 665 |
| CC1C\2C(O)C3C(N(C)C)C(=O)\C(=C(O)/C3(O)C(=O)C2=C(O)/C4=C1C=CC=C4O)C(N)=O (configuration not stated) | 473 | 502 | 573 |
| CCCOc1ccc2[nH]c(NC(=O)OC)nc2c1 | 499 | 480 | 568 |
| CC(=O)N1CCC(Nc2cc(C(=O)NC[C@H](O)CN3CCc4ccccc4C3)ncn2)CC1 | 450 | 473 | 558 |
| COC/1=C(\CNC(=O)C2=C(C)[N]([C@H](C)C3CCN(CC3)CC(F)(F)F)C4=C2C=CC=C4)C(=O)N/C(=C1)C | 453 | 470 | 556 |
| CCCC(CCC)C(=O)[O-] | 445 | 442 | 482 |
| Cc1cc2c(cc1C1(c3ccc(C(=O)O)cn3)CC1)C(C)(C)CCC2(C)C | 504 | 514 | 598 |
| CN1CCN(CC1)C\2=C\3/C=C(/C)SC3=N/C4=CC=CC=C4N2 | 556 | 555 | 513 |
| COc1cc([C@H]2Oc3cc([C@H]4Oc5cc(O)cc(O)c5C(=O)[C@@H]4O)ccc3O[C@@H]2CO)ccc1O | 585 | 587 | 632 |
| CC1=C(/C=C/C(C)=C/C=C/C(C)=C/C(=O)O)C(C)(C)CCC1 | 503 | 476 | 592 |
| CC(=O)NCCC(=O)N[C@@H](CCC(N)=O)C(=O)N[C@@H](CO)C(=O)N[C@@H](CCC(N)=O)C(=O)N[C@@H](CCC(N)=O)C(=O)N[C@H](C(=O)N[C@@H](Cc1ccccc1)C(=O)N[C@]1(C)CCCCCC/C=C\CCC[C@@](C)(C(=O)N[C@@H](CCC(N)=O)C(=O)N[C@@H](CC(N)=O)C(N)=O)NC(=O)[C@H](CC(C)C)NC(=O)[C@H](CC(C)C)NC(=O)[C@@H](CCCNC(=N)N)NC(=O)[C@H](Cc2c[nH]c3ccccc23)NC(=O)[C@H](CC(C)C)NC(=O)[C@H](CC(N)=O)NC1=O)[C@H](C)O | 425 | 546 | 575 |
| CCC(=O)NCC[C@@H]1CCc2ccc3c(c21)CCO3 | 490 | 531 | 564 |
| COc1cc([C@@H]2c3cc4c(cc3[C@@H](O)C3COC(=O)C32)OCO4)cc(OC)c1O (some centres not stated) | 500 | 511 | 559 |
| CN1C(=O)N(c2cc(Cl)cc(Cl)c2)C(=O)[C@]12CN(Cc1cc(C(=O)O)cs1)C[C@H]2c1ccc(C#N)cc1 | 401 | 404 | 420 |
| CCOC(=O)[C@H](CCc1ccccc1)N[C@H]1CCc2ccccc2N(CC(=O)O)C1=O | 492 | 520 | 592 |
| S=P(N1CC1)(N1CC1)N1CC1 | 496 | 562 | 590 |
| ClC1=CC=C2N/C3=N/C(=O)CN3CC2=C1Cl | 519 | 542 | 626 |
| CCN(CC)CCCC(C)Nc1c2ccc(Cl)cc2nc2ccc(OC)cc12.Cl.Cl.O.O (configuration not stated) | 402 | 556 | 561 |
| COc1cc2c(cc1OC)CN(CCc1ccc(NC(=O)c3cccc4c(=O)c5cccc(OC)c5[nH]c34)cc1)CC2 | 575 | 567 | 621 |

| Compound | area under concentration-response curve [1] | area under concentration-response curve [2] | area under concentration-response curve [3] |
| --- | --- | --- | --- |
| N#C/C(=C(/N)Sc1ccc(N)cc1)c1ccccc1C(F)(F)F | 533 | 585 | 574 |
| C[C@]\12CCC(=O)\C=C1CC[C@H]3[C@@H]4CC[C@](O)(C(=O)CO)[C@@]4(C)C[C@H](O)[C@H]23 | 458 | 512 | 549 |
| C[C@]12CC[C@H]3[C@@H](CCC/4=C/C(=O)CC[C@]34C)[C@@H]1CC[C@@H]2OC(=O)CCC5CCCC5 | 581 | 569 | 618 |
| CC(=O)N1c2ccc(-c3ccc(C(=O)O)cc3)cc2[C@H](Nc2ccc(Cl)cc2)C[C@@H]1C | 380 | 497 | 548 |
| NC1CCC(N[C@@H]2C[C@H]2c2ccccc2)CC1 (some centres not stated) | 409 | 458 | 487 |
| O=C1CCc2ccc(OCCCCN3CCN(c4cccc(Cl)c4Cl)CC3)cc2N1 | 468 | 544 | 593 |
| COCCNCCCn1c(C(=O)CF)c(-c2ccc(C)cc2)c2c(N)ncnc21 | 537 | 581 | 655 |
| C[C@]12CC[C@H]3[C@@H](C\C=C/4C[C@@H](O)CC[C@]34C)[C@@H]1CCC2=O | 523 | 479 | 591 |
| C[S+](=O)([O-])N(Cc1ccco1)CC(O)Cn1c2ccccc2c2ccccc21 (configuration not stated) | 477 | 473 | 515 |
| NC\1=N\C(=O)N(\C=N1)[C@H]2C[C@H](O)[C@@H](CO)O2 | 500 | 484 | 588 |
| [NH2][Pt]([NH2])([Cl])[Cl] | 528 | 514 | 576 |
| O=C(O)CCCCN(CCc1ccccc1OCc1ccc(CCc2ccccc2)cc1)Cc1ccc(C(=O)O)cc1 | 471 | 495 | 561 |
| O=C1[C@H](CC[C@H](O)c2ccc(F)cc2)[C@@H](c2ccc(O)cc2)N1c1ccc(F)cc1 | 536 | 565 | 650 |
| CN[C@@H](C)C(=O)N[C@@H]1C(=O)N(Cc2c(C)ccc3ccccc23)c2ccc(C#N)cc2N(C(C)=O)[C@H]1C | 501 | 549 | 474 |
| CCNC(=O)[C@H]1O[C@@H](n2cnc3c(N)nc(NCCc4ccc(CCC(=O)O)cc4)nc32)[C@H](O)[C@@H]1O | 404 | 537 | 587 |
| Cc1c(C)c2c(c(C)c1O)CCC(C)(COc1ccc(CC3SC(=O)NC3=O)cc1)O2 (configuration not stated) | 369 | 492 | 511 |
| N#Cc1ccc(Cn2cncc2CN2CCN(c3cccc(Cl)c3)C(=O)C2)cc1 | 520 | 514 | 578 |
| CC(C)[C@H]1C(=O)N[C@@H](CCCN=C(N)N)C(=O)NCC(=O)N[C@@H](CC(=O)O)C(=O)N[C@H](Cc2ccccc2)C(=O)N1C | 443 | 601 | 624 |
| Cc1noc(C)c1-c1ccc(-c2cc(C(N)=O)c(NC(N)=O)s2)c(O[C@H]2CCNC2)c1 | 456 | 447 | 471 |
| CC[N+](CC)(CC)CCOc1cccc(OCC[N+](CC)(CC)CC)c1OCC[N+](CC)(CC)CC | 412 | 474 | 472 |
| COC(=O)Nc1nc2cc(C(=O)c3ccc(F)cc3)ccc2[nH]1 | 570 | 462 | 574 |
| CC(=O)OCC(=O)[C@@]12OC(C)(C)O[C@@H]1C[C@H]3[C@@H]4C[C@H](F)C/5=C/C(=O)/C=C\[C@]5(C)[C@@]4(F)[C@@H](O)C[C@]23C | 439 | 519 | 528 |

Source: the supplement of paper PMC10949913
